Experimental data reported in patent publication US20090093538A1, “Method for treating cancer” (priority 2007, published 2009).

Test system: Ramos cells
Assay: ROS generation, carboxy-H2DCFDA probe, flow cytometry
Assay type: cell-based
Procedure: In these experiments, we monitored the production of ROS using the cell permeable Carboxy-H2DCFDA probe. When this probe is oxidized by ROS, it emits a green fluorescence that can be detected using flow cytometry or fluorescent microscopy. […] 25 μM carboxy-H2DCFDA (Invitrogen. C400) working solution was added to cover the cells, and the cells were incubate for 30 minutes at 37° C., protected from light. The cells were gently washed three times in warm HBSS/Ca/Mg. ROS levels, as determined by fluorescence intensity, were determined by flow cytometry (excitation at 495 nm, emission at 529 nm).
Tiron is a direct scavenger of ROS and is a potent inhibitor of oxidative stress.
Ramos cells were treated with elesclomol (500 nM) for the indicated times then washed gently once with warm HBSS/Ca/Mg (Invitrogen Carlsbad, Calif. Cat# 14025). 25 μM carboxy-H2DCFDA (Invitrogen Cat #C400) working solution was added to cover the cells and they were incubated for 30 minutes at 37° C., protected from light. The cells were gently washed three times in warm HBSS/Ca/Mg. ROS levels (fluorescence intensity) were determined by flow cytometry (excitation at 495 nm, emission at 529 nm) using a Becton Dickinson FACSCalibur equipped with CellQuest Pro software. Data is plotted as percent of elesclomol-treated cells with DCFDA fluorescence relative to DMSO (control) treated cells (see FIG. 49).

CN(NC(=O)CC(=O)NN(C)C(=S)c1ccccc1)C(=S)c1ccccc1 [Compound 1]
generation of ROS (0.5 μM, 24 hours): induced the generation of ROS | earliest time at which induction of ROS was observed (Ramos cells, time course): 3 h
